Test results published in US20260285850A1, “SUBSTITUTED OXAZOLIDINONES AND IMIDAZOLINONES AS HERBICIDES” (FMC CORPORATION, priority 2023, published 2026).

Legend:
Assay type in all cases: in vivo
corn (Zea mays) [1] = test: Test A preemergence soil spray, visual injury rating 0-100; details: 10 days
Summary of the method: (§1)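 Greenhouse test: loam/sand pots received a surfactant-containing formulation, as a preemergence directed soil spray or a postemergence spray on young plants. Injury was judged visually at day 10 relative to untreated controls.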

kochia (Bassia scoparia) [2] = test: as above; details: 10 days
Summary of the method: as §1

[3] = test system: palmer (palmer amaranth, palmer pigweed, Amaranthus palmeri); test: as above; details: 10 days
Summary of the method: as §1

[4] = test system: blackgrass (Alopecurus myosuroides); test: as above; details: 10 days
Summary of the method: as §1

[5] = test system: barnyardgrass (Echinochloa crus-galli); test: as above; details: 10 days
Summary of the method: as §1

[6] = test system: green foxtail (Setaria viridis); test: as above; details: 10 days
Summary of the method: as §1

[7] = test system: ryegrass, Italian (italian ryegrass, Lolium multiflorum); test: as above; details: 10 days
Summary of the method: as §1

[8] = test system: oat, wild (wild oat, Avena fatua); test: as above; details: 10 days
Summary of the method: as §1

soybean (Glycine max) [9] = test: as above; details: 10 days
Summary of the method: as §1

[10] = test system: wheat (Triticum aestivum); test: as above; details: 10 days
Summary of the method: as §1

[11] = test system: ragweed (common ragweed, Ambrosia artemisiifolia); test: as above; details: 10 days
Summary of the method: as §1

corn (Zea mays) [12] = test: Test A postemergence application, visual injury rating 0-100
Summary of the method: as §1

kochia (Bassia scoparia) [13] = test: as above
Summary of the method: as §1

[14] = test system: palmer (palmer amaranth, palmer pigweed, Amaranthus palmeri); test: as above
Summary of the method: as §1

[15] = test system: blackgrass (Alopecurus myosuroides); test: as above
Summary of the method: as §1

[16] = test system: barnyardgrass (Echinochloa crus-galli); test: as above
Summary of the method: as §1

[17] = test system: green foxtail (Setaria viridis); test: as above
Summary of the method: as §1

[18] = test system: ryegrass, Italian (italian ryegrass, Lolium multiflorum); test: as above
Summary of the method: as §1

[19] = test system: oat, wild (wild oat, Avena fatua); test: as above
Summary of the method: as §1

soybean (Glycine max) [20] = test: as above
Summary of the method: as §1

[21] = test system: wheat (Triticum aestivum); test: as above
Summary of the method: as §1

[22] = test system: horseweed (Erigeron canadensis); test: as above
Summary of the method: as §1

[23] = test system: ragweed (common ragweed, Ambrosia artemisiifolia); test: as above
Summary of the method: as §1

[24] = test system: sedge, umbrella (small-flower umbrella sedge, Cyperus difformis); test: Test B flooded paddy test, visual plant response rating 0-100; details: 250 g ai/ha, Flood, applied to paddy water, evaluated after 13 days
Summary of the method: (§2)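 Visual scores versus untreated controls were recorded 13 days after treatment of greenhouse-held plants. At the 2-leaf stage, pots were flooded 3 cm above the soil surface and compounds added straight to the water.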

[25] = test system: barnyardgrass (Echinochloa crusgalli); test: as above; details: 250 g ai/ha, Flood, applied to paddy water, evaluated after 13 days
Summary of the method: as §2

rice (Oryza sativa) = test: as above; details: 250 g ai/ha, Flood, applied to paddy water, evaluated after 13 days
Summary of the method: as §2

[26] = test system: ducksalad (Heteranthera limosa); test: as above; details: 250 g ai/ha, Flood, applied to paddy water, evaluated after 13 days
Summary of the method: as §2

[27] = 62 g ai/ha, 0 = no effect, 100 = complete control
[28] = 62 g ai/ha, postemergence, 10 days, 0 = no effect, 100 = complete control
[29] = Postemergence, 16 g ai/ha, greenhouse 10 days, 0 no effect, 100 complete control

For CC1(C(=O)NC2C=CC(C(=O)NO)C2)CN(c2cc(F)cc(F)c2)C(=O)O1 (centres unmarked) [Compound 137], the “Corn plant response rating” value (corn (Zea mays) [1]; 16 g ai/ha, 0 to 100 scale) was 0, the “Corn plant response rating (0-100)” value (corn (Zea mays) [1]; [27]) was 10 and the “Kochia plant response rating” value (kochia (Bassia scoparia) [2]; 16 g ai/ha, 0 to 100 scale) was 0. For the same molecule, the “Kochia plant response rating (0-100)” value (kochia (Bassia scoparia) [2]; [27]) was 90, the “Pigweed, Palmer plant response rating” value ([3]; 16 g ai/ha, 0 to 100 scale) was 20 and the “Pigweed, Palmer plant response rating (0-100)” value [3, 27] was 70. For the same molecule, the “Blackgrass plant response rating” value ([4]; 16 g ai/ha, 0 to 100 scale) was 0, the “Blackgrass plant response rating (0-100)” value [4, 27] was 50 and the “Barnyardgrass plant response rating” value ([5]; 16 g ai/ha, 0 to 100 scale) was 0. For the same molecule, the “Barnyardgrass plant response rating (0-100)” value [5, 27] was 60, the “Foxtail, Green plant response rating” value ([6]; 16 g ai/ha, 0 to 100 scale) was 0 and the “Foxtail, Green plant response rating (0-100)” value [6, 27] was 30. For the same molecule, the “Ryegrass, Italian plant response rating” value ([7]; 16 g ai/ha, 0 to 100 scale) was 30, the “Ryegrass, Italian plant response rating (0-100)” value [7, 27] was 60 and the “Oat, Wild plant response rating” value ([8]; 16 g ai/ha, 0 to 100 scale) was 0. The “Oat, Wild plant response rating (0-100)” value [8, 27] was 30, the “Soybean plant response rating” value (soybean (Glycine max) [9]; 16 g ai/ha, 0 to 100 scale) was 0 and the “Soybean plant response rating (0-100)” value (soybean (Glycine max) [9]; [27]) was 50. For the same molecule, the “Wheat plant response rating” value ([10]; 16 g ai/ha, 0 to 100 scale) was 20, the “Wheat plant response rating (0-100)” value [10, 27] was 90 and the “Ragweed plant response rating” value ([11]; 16 g ai/ha, 0 to 100 scale) was 0. The “Ragweed plant response rating (0-100)” value [11, 27] was 0, the “Corn plant response rating (0-100)” value (corn (Zea mays) [12]; [28]) was 50 and the “Corn plant response rating (0 to 100 scale)” value (corn (Zea mays) [12]; [29]) was 10. For the same molecule, the “Kochia plant response rating (0-100)” value (kochia (Bassia scoparia) [13]; [28]) was 50, the “Kochia plant response rating (0 to 100 scale)” value (kochia (Bassia scoparia) [13]; [29]) was 0 and the “Pigweed, Palmer plant response rating (0-100)” value [14, 28] was 30. For the same molecule, the “Pigweed, Palmer plant response rating (0 to 100 scale)” value [14, 29] was 0, the “Blackgrass plant response rating (0-100)” value [15, 28] was 60 and the “Blackgrass plant response rating (0 to 100 scale)” value [15, 29] was 0. The “Barnyardgrass plant response rating (0-100)” value [16, 28] was 70, the “Barnyardgrass plant response rating (0 to 100 scale)” value [16, 29] was 0 and the “Foxtail, Green plant response rating (0-100)” value [17, 28] was 10. The “Foxtail, Green plant response rating (0 to 100 scale)” value [17, 29] was 0, the “Ryegrass, Italian plant response rating (0-100)” value [18, 28] was 30 and the “Ryegrass, Italian plant response rating (0 to 100 scale)” value [18, 29] was 0. The “Oat, Wild plant response rating (0-100)” value [19, 28] was 30, the “Oat, Wild plant response rating (0 to 100 scale)” value [19, 29] was 0 and the “Soybean plant response rating (0-100)” value (soybean (Glycine max) [20]; [28]) was 60. For the same molecule, the “Soybean plant response rating (0 to 100 scale)” value (soybean (Glycine max) [20]; [29]) was 0, the “Wheat plant response rating (0-100)” value [21, 28] was 70 and the “Wheat plant response rating (0 to 100 scale)” value [21, 29] was 0. The “Horseweed plant response rating (0-100)” value [22, 28] was 50, the “Horseweed plant response rating (0 to 100 scale)” value [22, 29] was 0 and the “Ragweed plant response rating (0-100)” value [23, 28] was 0. For the same molecule, the “Ragweed plant response rating (0 to 100 scale)” value [23, 29] was 0, the “Plant response rating, Sedge, Umbrella (0 to 100 scale, 0 is no effect and 100 is complete control)” value [24] was 0 and the “Plant response rating, Barnyardgrass (0 to 100 scale, 0 is no effect and 100 is complete control)” value [25] was 0. For the same molecule, the “Plant response rating, Rice (0 to 100 scale, 0 is no effect and 100 is complete control)” value (rice (Oryza sativa)) was 0 and the “Plant response rating, Ducksalad (0 to 100 scale, 0 is no effect and 100 is complete control)” value [26] was 0.
